Test results taken from patent US20230340060A1, “NOVEL MEANS TO PREDICT AND MANIPULATE NMDA RECEPTOR-MEDIATED TOXICITY” (FundaMental Pharma GmbH, priority 2020, published 2023).

Key:
HEK293 cells = assay: Luminescent Cytotoxicity Assay (CytoTox-Glo) after transfection with GluN1 and GluN2A or GluN2B constructs; format: cell-based, human; conditions: for cell death: HEK293 cells; for susceptibility to NMDA receptor mediated toxicity: subject carrying the variant, based on HEK293 cell death, with GluN1, 48 h after transfection
Method: HEK293 Cell Culture HEK293 cells were cultured in Dulbecco's Modified Eagle Medium (DMEM, Gibco™, 41965-039) supplement with 10% Fetal Bovine Serum (FBS, Gibco™, 10270), 1% Sodium Pyruvate (Gibco™, 11360070), 1% MEM NEAA (Gibco™, 11140035) and 0.5% Penicillin-Streptomycin (P-S; Sigma, P0781) and Passage15-25 were used for experiments.
To test the cytotoxicity of compounds according to the present invention, HEK293 cells (70-80% confluent) were transfected 24 hours after plating with expression vectors for both GluN1 and GluN2A or GluN2B, respectively (1:1; 2 μg plasmids in total per 6-cm dishes) with Lipofectamine 2000 according to manufacturer's instructions. The relative number of dead cells in the population at the indicated time points after transfection was measured with the CytoTox-Glo™ Cytotoxicity assay (Promega, G9290) according to manufacturer's instruction with minor modification. Briefly, 10% of total medium were mixed with 10 μL AAF-amino luciferin to reach a final volume at 200 μL with water, the dead cell relative luminescence units (DRLU) was measured by GloMax (Promega) in a 96 well white bottom polystyrene microplate (Corning Costar®, 3912). After all the measurements, lysis reagents have been added to the cells and 10% of lysate was used for the total cell relative luminescence units (TRLU) measurement. Cell death was calculated by the following equations: […]
In order to investigate the role of GluN2A and GluN2B in NMDA receptor mediated toxicity, the inventors have built constructs and transfected the plasmids into HEK293 cells.
In a next step, the inventors tried to assess the importance of the isoleucine and other amino acid residues in the inventive sequence motif. The inventors have built constructs containing above-mentioned mutants and transfected the plasmids into HEK293 cells.
In view of the results obtained for the GluN2A and GluN2B mutants of the inventive sequence motif in example 3, the inventors further tested the impact of naturally occurring variations in said sequence motif in the human gene pool on susceptibility towards NMDA receptor mediated toxicity. The inventors have built constructs containing above-mentioned mutants selected from the SNP database from NCBI (for GRIN2A, https://www.ncbi.nlm.nih.gov/projects/SNP/snp_ref.cgi?showRare=on&chooseRs=coding&g o=Go&locusId=2903, and for GRIN2B, https://www.ncbi.nlm.nih.gov/projects/SNP/snp_ref.cgi?showRare=on&chooseRs=coding&g o=Go&locusId=2904) and transfected the plasmids into HEK293 cells.

[1] = system: primary mouse hippocampal neurons; assay: Neuronal death assessment after rAAV-mediated expression of polypeptides; format: cell-based; conditions: rAAV infection on DIV3, fixed on DIV17, Hoechst staining, polypeptide fused to HA tag and GPI anchor
Method: Primary mouse hippocampal were prepared and maintained as known to the skilled person. Briefly, hippocampi from P0 C57Bl/6N mice were dissociated and plated at a density of […] in Growth Medium (GM), consisting of Neurobasal A medium (Gibco™, 10888022), 2% serum free B27™ Supplement (Gibco™, 17504044), 1% rat serum (Biowest, S2150), 0.5 mM L-Glutamine (Sigma, G7513) and 0.5% P-S. Cytosine P-D-arabinofuranoside (AraC; Sigma, C1768; 2.8 μM) was added on DIV3 to prevent the proliferation of glial cells. From DIV8, half of the medium was replaced by GM without Rat serum every 48 h until being used for experiments. […]
Neurons were fixed in 4% paraformaldehyde with 4% sucrose in PBS for 15 min followed with Hoechst staining. […] Cell death is analyzed by Cell Profiler and Cell Analyzer software.
In a next step, the inventors assessed whether the inventive sequence motif on its own is sufficient to induce NMDA receptor mediated toxicity. […] Neurons were fixed on DIV17, stained with Hoechst and cell death was quantified.

[2] = combined expression with GluN1, 48 h after transfection

## GluN2A: wild type rat GluN2A (UniProtKB-Q00959) comprising canonical sequence SEQ ID NO:1
HEK293 cells; [2]
  cell death: induced cell death
HEK293 cells
  susceptibility to NMDA receptor mediated toxicity: regular susceptibility

## GluN2A (I876N): GluN2A with naturally occurring substitution I876N
HEK293 cells; [2]
  cell death: also toxic
HEK293 cells
  susceptibility to NMDA receptor mediated toxicity: increased susceptibility
HEK293 cells; listed as SEQ ID NO:6
  susceptibility to NMDA receptor mediated toxicity: significantly increased susceptibility

## GluN2B: wild type rat GluN2B (UniProtKB-Q00960) comprising canonical sequence SEQ ID NO:7
HEK293 cells; [2]
  cell death: induced cell death
HEK293 cells
  susceptibility to NMDA receptor mediated toxicity: regular susceptibility

## GluN2A-I2A2: GluN2A with substitutions I867A and I871A (SEQ ID NO:2)
HEK293 cells; [2]
  cell death: still show some toxic properties
HEK293 cells; combined expression with GluN1, 48 h after transfection, listed as GluN2A SEQ ID NO:2
  cell death: at least reduced levels of toxicity

## GluN1: wild type rat GluN1 (UniProtKB-P35439), control when expressed alone
HEK293 cells; transfected alone (control), 48 h after transfection
  cell death: neither GFP nor GluN1 alone (both serving as controls) could induce cell death

## GluN2B-12A2: GluN2B with substitutions I868A and I872A (SEQ ID NO:21)
HEK293 cells; [2]
  cell death: essentially abrogated any toxic effect

## GluN2A (I867M): GluN2A with naturally occurring substitution I867M
HEK293 cells; [2]
  cell death: also toxic
HEK293 cells
  susceptibility to NMDA receptor mediated toxicity: increased susceptibility

## GluN2A-IAHA: GluN2A with substitutions I867A, I871A and H875A (SEQ ID NO:21)
HEK293 cells; [2]
  cell death: at least reduced levels of toxicity

## GluN2A (S869R): GluN2A with naturally occurring substitution S869R
HEK293 cells; [2]
  cell death: also toxic
HEK293 cells
  susceptibility to NMDA receptor mediated toxicity: regular susceptibility

## SEQ ID NO:10: mutant GluN2A derived polypeptide comprising SEQ ID NO:2, fused to HA tag and GPI anchor (TGVCSDRPGLLFSISRGAYSCAHGVHIEEKKKS; GluN2A core motif mutated with 2 Ile residues mutated to Ala residues plus flanking regions)
[1]
  cell death: not able to induce cell death
[1]; listed as SEQ ID NO: 10
  cell death: greatly reduces the cell death levels to approx. the levels of untransfected control

## GluN2A-13A3: GluN2A with substitutions I863A, I867A and I871A (SEQ ID NO:3)
HEK293 cells; [2]
  cell death: still show some toxic properties
HEK293 cells; combined expression with GluN1, 48 h after transfection, listed as GluN2A SEQ ID NO:3
  cell death: at least reduced levels of toxicity

## GluN2B (H873R): GluN2B with naturally occurring substitution H873R
HEK293 cells
  susceptibility to NMDA receptor mediated toxicity: decreased susceptibility

## GluN2B-I2A2AH: GluN2B with substitutions I868A, I872A and A876H
HEK293 cells; [2]
  cell death: essentially abrogated any toxic effect
